Earlier results in patent US11260023B2, “Topical compositions containing rofecoxib and methods of making and using the same” (BRIORI BIOTECH, LLC, priority 2020, dated 2022).

settings: of the solvent; cited from earlier work

In order of falling logP:
1. CCOC(=O)CCCCCCCCC(=O)OCC [Diethyl Sebacate, diethyl sebacate]  3.5
2. CC(C)OC(=O)CCCCC(=O)OC(C)C [Diisopropyl Adipate, diisopropyl adipate]  2.2
3. CC1=CCC(C(C)(C)O)CC1 (stereo not drawn) [alpha-Terpineol 95.0+ %, alpha-terpineol]  1.8
4. CCOC(C)=O [Ethyl Acetate, ethyl acetate]  0.76
5. CC(=O)OCC(C)OC(C)=O (centres unmarked) [Propylene Glycol Diacetate, propylene glycol diacetate]  0.7
6. CN1CCCC1=O [N-Methyl-2-Pyrrolidone, N-methyl-2-pyrrolidone]  0.5
7. CC(O)CC(C)(C)O (centres unmarked) [2-Methyl-pentane-2,4-diol, 2-methylpentane-2,4-diol]  0.3
8. CC(C)=O [Acetone, acetone]  −0.1
9. CC1COC(=O)O1 (centres unmarked) [Propylene Carbonate, propylene carbonate]  −0.4
10. CCOCCOCCO [Diethylene Glycol Monoethyl Ether, diethylene glycol monoethyl ether]  −0.5
11. CO[C@H]1CO[C@H]2[C@@H]1OC[C@H]2OC [Dimethyl Isosorbide, isosorbide dimethyl ether]  −0.6
12. C[S+](C)[O-] [Dimethyl Sulfoxide, dimethyl sulfoxide]  −0.6
13. CC(O)CO (centres unmarked) [Propylene Glycol, MP, propylene glycol]  −0.9

In order of falling “Δd (dispersion)” value:
1. CC1COC(=O)O1 (centres unmarked) [Propylene Carbonate, propylene carbonate]  20 MPa^1/2
2. OCc1ccccc1 [Benzyl Alcohol, benzyl alcohol]  18.4 MPa^1/2
3. C[S+](C)[O-] [Dimethyl Sulfoxide, dimethyl sulfoxide]  18.4 MPa^1/2
4. CN1CCCC1=O [N-Methyl-2-Pyrrolidone, N-methyl-2-pyrrolidone]  18 MPa^1/2
5. CO[C@H]1CO[C@H]2[C@@H]1OC[C@H]2OC [Dimethyl Isosorbide, isosorbide dimethyl ether]  17.6 MPa^1/2
6. CC1=CCC(C(C)(C)O)CC1 (stereo not drawn) [alpha-Terpineol 95.0+ %, alpha-terpineol]  17.1 MPa^1/2
7. CC(O)CO (centres unmarked) [Propylene Glycol, MP, propylene glycol]  16.8 MPa^1/2
8. CC(O)CC(C)(C)O (centres unmarked) [2-Methyl-pentane-2,4-diol, 2-methylpentane-2,4-diol]  16.4 MPa^1/2
9. CCOCCOCCO [Diethylene Glycol Monoethyl Ether, diethylene glycol monoethyl ether]  16.2 MPa^1/2
10. CCCCCCCCCCCCCC(=O)OC(C)C [Isopropyl tetradecanoate, isopropyl tetradecanoate]  16.2 MPa^1/2
11. CCOC(=O)CCCCCCCCC(=O)OCC [Diethyl Sebacate, diethyl sebacate]  16 MPa^1/2
12. CCOC(C)=O [Ethyl Acetate, ethyl acetate]  15.8 MPa^1/2
13. CC(C)=O [Acetone, acetone]  15.5 MPa^1/2

In order of falling “Δh (hydrogen bonding)” value:
1. CC(O)CO (centres unmarked) [Propylene Glycol, MP, propylene glycol]  23.3 MPa^1/2
2. CC(O)CC(C)(C)O (centres unmarked) [2-Methyl-pentane-2,4-diol, 2-methylpentane-2,4-diol]  20.6 MPa^1/2
3. CCOCCOCCO [Diethylene Glycol Monoethyl Ether, diethylene glycol monoethyl ether]  14.3 MPa^1/2
4. OCc1ccccc1 [Benzyl Alcohol, benzyl alcohol]  13.7 MPa^1/2
5. C[S+](C)[O-] [Dimethyl Sulfoxide, dimethyl sulfoxide]  10.2 MPa^1/2
6. CC1=CCC(C(C)(C)O)CC1 (stereo not drawn) [alpha-Terpineol 95.0+ %, alpha-terpineol]  7.6 MPa^1/2
7. CO[C@H]1CO[C@H]2[C@@H]1OC[C@H]2OC [Dimethyl Isosorbide, isosorbide dimethyl ether]  7.5 MPa^1/2
8. CCOC(C)=O [Ethyl Acetate, ethyl acetate]  7.2 MPa^1/2
9. CN1CCCC1=O [N-Methyl-2-Pyrrolidone, N-methyl-2-pyrrolidone]  7.2 MPa^1/2
10. CC(C)=O [Acetone, acetone]  7 MPa^1/2
11. CCOC(=O)CCCCCCCCC(=O)OCC [Diethyl Sebacate, diethyl sebacate]  4.7 MPa^1/2
12. CC1COC(=O)O1 (centres unmarked) [Propylene Carbonate, propylene carbonate]  4.1 MPa^1/2
13. CCCCCCCCCCCCCC(=O)OC(C)C [Isopropyl tetradecanoate, isopropyl tetradecanoate]  3.7 MPa^1/2

In order of falling “Δp (polar)” value:
1. CC1COC(=O)O1 (centres unmarked) [Propylene Carbonate, propylene carbonate]  18 MPa^1/2
2. C[S+](C)[O-] [Dimethyl Sulfoxide, dimethyl sulfoxide]  16.4 MPa^1/2
3. CN1CCCC1=O [N-Methyl-2-Pyrrolidone, N-methyl-2-pyrrolidone]  12.3 MPa^1/2
4. CC(C)=O [Acetone, acetone]  10.4 MPa^1/2
5. CC(O)CO (centres unmarked) [Propylene Glycol, MP, propylene glycol]  9.4 MPa^1/2
6. CCOCCOCCO [Diethylene Glycol Monoethyl Ether, diethylene glycol monoethyl ether]  9.2 MPa^1/2
7. CC(O)CC(C)(C)O (centres unmarked) [2-Methyl-pentane-2,4-diol, 2-methylpentane-2,4-diol]  8 MPa^1/2
8. CO[C@H]1CO[C@H]2[C@@H]1OC[C@H]2OC [Dimethyl Isosorbide, isosorbide dimethyl ether]  7.1 MPa^1/2
9. OCc1ccccc1 [Benzyl Alcohol, benzyl alcohol]  6.3 MPa^1/2
10. CCOC(C)=O [Ethyl Acetate, ethyl acetate]  5.3 MPa^1/2
11. CCOC(=O)CCCCCCCCC(=O)OCC [Diethyl Sebacate, diethyl sebacate]  4 MPa^1/2
12. CC1=CCC(C(C)(C)O)CC1 (stereo not drawn) [alpha-Terpineol 95.0+ %, alpha-terpineol]  3.6 MPa^1/2
13. CCCCCCCCCCCCCC(=O)OC(C)C [Isopropyl tetradecanoate, isopropyl tetradecanoate]  2.4 MPa^1/2

settings: after 24 hours after 25 hours; cited from earlier work

In the case of O=C(O)Cc1ccccc1Nc1c(Cl)cccc1Cl [diclofenac], the “amount of diclofenac that penetrates into the blood” value is given as 0.067 mg.
